Test results reported in US20130252334A1, “METHOD OF USING TET-INDUCIBLE TRANSGENES” (UNIVERSITY OF ROCHESTER, priority 2010, published 2013).
Like-named read-outs stand apart in the source and are kept apart here. Blank lines part the entries; values can stand above or below the molecule they belong to.

Tested on: caspase-3 cleavage
Details: 2.5 μg/ml; for suppression of hypoxia-induced caspase-3 cleavage after pulse dosing: 16 hours washout, hypoxia 0.5% O2 24 hours; for caspase-3 cleavage, both dosing protocols: continuous or pulse, hypoxia

SMILES: C[C@H]1c2ccc(C(C)(C)C)c(O)c2C(O)=C2C(=O)[C@]3(O)C(O)=C(C(N)=O)C(=O)[C@@H](N(C)C)[C@@H]3[C@@H](O)[C@@H]21 [9-TB, 9-t-butyl doxycycline]
suppression of hypoxia-induced caspase-3 cleavage after pulse dosing (12 hours pulse): less impressive | suppressive effect on caspase-3 cleavage vs washout period length (12 hours pulse, washout 0, 12, 24 hours, hypoxia 0.5% O2 18 hours): augmented by shorter washout periods with a sharp decline occurring between the 12 and 24-hour chase periods | caspase-3 cleavage, both dosing protocols: both drugs interfered with caspase-3 cleavage

suppression of hypoxia-induced caspase-3 cleavage after pulse dosing (12 hours pulse): ameliorated dox-mediated suppression
SMILES: CC1c2cccc(O)c2C(=O)C2=C(O)C3(O)C(=O)C(C(N)=O)=C(O)C(N(C)C)C3C(O)C21 (stereo not drawn) [Dox, 4-[Dimethylamino]-1,4,4a,5,5a,6,11,12a-octahydro-3,5,10,12,12apentahydroxy-6-methyl-1,11-dioxo-2-naphthacenecarboxamide]
suppression of hypoxia-induced caspase-3 cleavage after pulse dosing (12 hours pulse, listed as doxycycline): did ameliorate its suppressive effects on caspase cleavage | caspase-3 cleavage, both dosing protocols: both drugs interfered with caspase-3 cleavage
